# “And” between values parts separate entries of the source, which are not always exact repeats. Identical values can stand only once. “Also recorded” adds a separate entry of the source.
# What was measured:
# GPCR22 [1] = target: T1, GPCR22 (Rattus norvegicus, UniProt D4A3U0); test: Fluo-4 AM imaging of intracellular Ca2+ in GPCR22-transfected S2 cells; format: cell-based; parameters: expressed in transfected cells; host or cells: Drosophila Schneider 2 (S2) cells, pMT-V5-HisA vector, CuSO4 induction
# Description: (§1) Fluo-4 AM calcium imaging was used to visualize intracellular calcium concentration in the GPRC22-transfected and non-transfected S2 cells. A 2.5 mM stock solution of Fluo-4 Am dye (molecular Probes, Burlington, ON) was prepared in DMSO and 20% Pluronic F-127 and used to within a week. The S2 cell preparations were incubated with a final concentration of 5 μM fluo-4AM and 0.02% Pluronic F-127 in 1 ml S2 culture medium for 20 min at room temperature, then washed to allow for full de-esterification of AM esters. Imaging was carried out on an upright Nikon Eclipse FN-S2N upright fluorescence microscope using 10×/40× objectives with a filter to excite Fluo-4, a dye at 488 nm wavelength (peak excitation=494 nm and peak emission=516 nm) using a Lambda DG-4 illuminator (Sutter Instrument Co., Novato, Calif., USA). Images were captured using a Quantem 512SC camera with a frame rate of 5-10 frames per second and Nikon-NIS Elements, advanced research, imaging software. Intracellular calcium concentration was created in the Nikon-NIS elements program using regions of interest (ROIs) per each experiment. ROIs were selected free hand and encompassed the cell body to be analyzed. The ROIs were tracked and the average pixel intensity was measured in that region for the duration of the recording. These measurements were then exported to Excel and Clampfit for further analysis of frequency and amplitude. Intracellular calcium concentration of S2 cells was monitored at room temperature. 20-30 S2 cells were calculated to determine the average overall fluorescence signal intracellular calcium concentration. The fluorescence intensity was presented as the ratio F1/F0 in which the raw fluorescence intensity signals of a region of interest (ROI) was compared to the first fluorescence signal in that ROI throughout the recording. The Wilcoxon matched pairs t-test was used on two samples with equal variances to determine statistically significant differences at P=0.05. In each set of experiments, the exposure protocols for control and test conditions were identical.
# non-transfected S2 cells [2] = test: Actinomycin D-induced apoptosis, Caspase-3 flow cytometry, non-transfected S2 cells; format: cell-based, Drosophila; details: 100 μM guanosine before 1 μM actinomycin D
# Description: (§2) In order to determine whether guanosine produced any anti-apoptotic effects through a GPCR22-mediated mechanism, the effect of guanosine on apoptosis in GPCR22-transfected S2 cells was measured using flow cytometry techniques. Briefly, S2 cells were maintained in Schneider's Drosophila medium (GIBCO) supplemented with 10% heat-inactivated fetal calf serum, penicillin and streptomycin. For induction of apoptosis both receptor-transfected and non-transfected S2 cells were incubated in 1 μM actinomycin D (Sigma) for 6 hours at 25° C. Prior to the induction of apoptosis, to the S2 culture medium were either added 100 μM guanosine or the same amount of vehicle. After a 48 hr incubation with guanosine or vehicle, the cells were fixed with 4% PFA for fluorescent-immunostaining. The primary antibody Caspase-3 (10 μg/ml; R&D systems AF835) was incubated at room temperature for 1.5 hr and the secondary antibody (donkey anti rabbit Alexa488 (1:1800) was incubated at room temperature for 1 hr. After rinsing with PBS cells were re-suspend with “PBS+0.5% BSA” solution for flow cytometry reading using a 8 colour, […] (488 nm, 633 nm, 405 nm) FACS (Canto) machine.
# GPCR22 [3] = target: T2, GPCR22 (Homo sapiens, UniProt Q99680, C425R); test: Erk 1/2 and Akt phosphorylation by guanosine in 1321N1 human astrocytoma cells transfected with GPCR22 DNA (Western Blot); format: cell-based; details: guanosine 300 μM, compared to non-GPCR22-transfected 1321N1 cells
# T2 construct: A full length cDNA clone of human GPCR22 was provided by Origene Technologies; host or cells: 1321N1 human astrocytoma cells, pCMV vector, transient
# Description: A full length cDNA clone of human GPCR22 was provided by Origene Technologies. Transient expression in the 1321N1 cell line was performed using a pCMV expression vector. cDNA fragments present in an expression vector (pCMV) is located downstream of a transcriptional promoter capable of driving heterologous gene expression in a variety of mammalian cells. 1321N1 cell lines were transiently transfected with hGPCR22 cloned into pCMV expression vectors (Invitrogen). DNA transfection was performed by lipofection using Lipofectamine (Life Technologies). Twenty-four hours after transfection, the cells were lysed and assayed. RT-PCR analysis using GPCR22 forward: CTCATCTGCTGTTTCCACGA (SEQ. ID NO: 5) and GPCR22 reverse CGGATGTTAAGAGCCTGGAG (SEQ. ID NO: 6), was used to confirm the transfection of GPCR22 (G1) (labelled “1321N1 G1-pCMV Trans”) into 1321N1 cells as shown in FIG. 6a and evidenced by the band at 411 bp. Furthermore, the expression of GPCR22 (labelled “1321N1 G1-pCMV Trans”) in 1321N1 cells as compared to non-G1 transfected cells (labelled “1321N1”) was confirmed by Western Blot analysis using a rabbit polyclonal anti-GPCR22 antibody (NovateinBio, SH-A12465, MA, USA), as shown in FIG. 6b.
# GPCR22 (G1) receptor = target: T3, GPCR22 (G1) receptor (Homo sapiens, UniProt Q99680, C425R); test: Intracellular cAMP in 1321N1 cell line transfected with GPCR22 (G1) receptor; format: cell-based; details: increasing concentrations of guanosine, absence and presence of PTX (200 ng/ml, 16 h); FIG. 7e
# T3 construct: A full length cDNA clone of human GPCR22 was provided by Origene Technologies; expressed in transfected cells; host or cells: 1321N1 human astrocytoma cells
# non-transfected S2 cells [4] = test: Fluo-4 AM imaging of intracellular Ca2+ in non-transfected S2 cells; format: cell-based, Drosophila; details: guanosine versus vehicle, FIGS. 12a, 12d
# Description: as §1, with “Intracellular calcium concentration was created in the Nikon-NIS elements program using regions of interest (ROIs) per each experiment.” left out, “These measurements were then exported to Excel and Clampfit for further analysis of frequency and amplitude.” left out, “The fluorescence intensity was presented as the ratio F1/F0 in which the raw fluorescence intensity signals of a region of interest (ROI) was compared to the first fluorescence signal in that ROI throughout the recording. The Wilcoxon matched pairs t-test was used on two samples with equal variances to determine statistically significant differences at P=0.05. In each set of experiments, the exposure protocols for control and test conditions were identical.” left out
# GPCR22 [5] = target: T1, GPCR22; test: Guanosine binding in rat astrocytes after inhibition of GPCR22 by siRNA; parameters: endogenous in cells; host or cells: cultured rat (brain) astrocytes; details: astrocytes with GPCR22 inhibited by siRNA; data not shown
# Description: Transient transfection of siRNAs for the rGPCR22 gene on rat cultured astrocytes and cell extracts were assayed for gene silencing 24 h after transfection was carried out. siRNA duplex specific for the rGPCR22 receptor were designed and chemically synthesized (www.Dharma.com), as well as their non specific control (NSC). Transfection of siRNAs for targeting endogenous genes was carried out using Oligofectamine (Invitrogen, Life Technologies) according to the manufacturer's instruction. Briefly, astrocytes at 60-70% confluence were cultured for 1 day in culture medium without antibiotics. 10 ml siRNA (20 mM) (Dharmacon research, Inc.) were diluted in 175 ml optimem for 5 min at room temperature. In the meantime, 3 ml oligofectamine was mixed in 15 ml optimem for 5 min. RNA interference was performed by mixing diluted oligofectamine and siRNA for 30 min at room temperature and was then added to the cells. The same scheme was performed on other samples using a siRNA-scrambled (NSP=non specific control). Cells were incubated at 37° C. for 24 hours. Twenty-four hours after transfection, the cells were lysed and assayed for gene silencing. The effect of GPCR22 silencing on MAPK and AKT phosphorylation, and cAMP assay was analysed. […]
# GPCR22 [6] = target: T1, GPCR22; test: Erk 1/2 and Akt phosphorylation by guanosine in cultured rat astrocytes treated with siRNA for GPCR22 (Western Blot); format: cell-based; parameters: endogenous in cells; host or cells: cultured rat (brain) astrocytes
# Description: Transient transfection of siRNAs for the rGPCR22 gene on rat cultured astrocytes and cell extracts were assayed for gene silencing 24 h after transfection was carried out. siRNA duplex specific for the rGPCR22 receptor were designed and chemically synthesized (www.Dharma.com), as well as their non specific control (NSC). Transfection of siRNAs for targeting endogenous genes was carried out using Oligofectamine (Invitrogen, Life Technologies) according to the manufacturer's instruction. Briefly, astrocytes at 60-70% confluence were cultured for 1 day in culture medium without antibiotics. 10 ml siRNA (20 mM) (Dharmacon research, Inc.) were diluted in 175 ml optimem for 5 min at room temperature. In the meantime, 3 ml oligofectamine was mixed in 15 ml optimem for 5 min. RNA interference was performed by mixing diluted oligofectamine and siRNA for 30 min at room temperature and was then added to the cells. The same scheme was performed on other samples using a siRNA-scrambled (NSP=non specific control). Cells were incubated at 37° C. for 24 hours. Twenty-four hours after transfection, the cells were lysed and assayed for gene silencing. The effect of GPCR22 silencing on MAPK and AKT phosphorylation, and cAMP assay was analysed.
# GPCR22 [7] = target: T1, GPCR22; test: [3H]-guanosine binding to GPCR22 protein extracted from transfected S2 cells, competition with cold guanosine; parameters: expressed in transfected cells; host or cells: Drosophila Schneider 2 (S2) cells, pMT-V5-HisA vector, CuSO4 induction; details: 10 nM [3H]-guanosine, 25° C., 75 min, FIG. 14
# Description: The ability of GPCR22 receptor to bind to guanosine was assessed by performing competitive binding studies in the presence of cold guanosine. GPCR22 protein extracted from transfected […] cells were used in performing receptor-binding studies. The binding of [^3H]-guanosine (“hot” guanosine) to GPCR22 receptor was performed in triplicate in a final volume of 125 μl assay buffer (pH 7.4, 50 mM Tris-HCl, 1 mM EDTA, 5 mM MgCl2, 0.1 mM DTT, 0.1 mM PMSF, 100 mg/ml bacitracin and 5 mg/ml soybean trypsin inhibitor) containing 10 nM [^3H]-guanosine and the following concentrations of unlabeled guanosine (“cold” guanosine) (0.01 μM, 0.1 μM, 1.0 μM, 10 μM, 100 μM and 1 mM) and 50 ug of protein. The incubation of the GPCR22 receptor protein with ligands was carried out at 25° C. for 75 min. At the end of the incubation period, the unbound ligands were separated by vacuum filtration through Whatman GF/B filters. The bound ligand-protein was further washed 3 times with 5 ml of Tris-EDTA buffer, pH 7.4 (50 mM Tris-HCl, 1 mM EDTA). The radioactive filters were placed in plastic counting vials containing 4 ml of scintillation fluid, equilibrated overnight in a dark environment and counted the next day in a Beckman LS5000 liquid scintillation counter Model 1780. Non-specific binding was also calculated by the addition of excess guanosine (10 mM). […]
# [8] = system: GPCR22-transfected S2 cells; test: Actinomycin D-induced apoptosis, Caspase-3 flow cytometry, GPCR22-transfected S2 cells; format: cell-based, Drosophila; details: 100 μM guanosine before 1 μM actinomycin D; FIGS. 11a-d
# Description: as §2
# T1 sequence (D4A3U0 whole entry): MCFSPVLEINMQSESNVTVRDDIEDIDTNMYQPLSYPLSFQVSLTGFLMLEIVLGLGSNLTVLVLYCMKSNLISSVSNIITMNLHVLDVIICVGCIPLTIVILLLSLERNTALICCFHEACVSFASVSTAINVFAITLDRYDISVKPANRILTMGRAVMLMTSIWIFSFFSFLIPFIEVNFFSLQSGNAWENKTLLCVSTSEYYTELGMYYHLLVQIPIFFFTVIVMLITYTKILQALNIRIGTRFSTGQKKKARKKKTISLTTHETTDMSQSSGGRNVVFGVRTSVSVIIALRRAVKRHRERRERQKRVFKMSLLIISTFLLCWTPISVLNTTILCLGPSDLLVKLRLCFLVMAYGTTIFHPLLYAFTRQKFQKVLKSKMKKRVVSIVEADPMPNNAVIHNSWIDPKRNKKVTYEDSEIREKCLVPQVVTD
# T2 sequence (Q99680 whole entry C425R): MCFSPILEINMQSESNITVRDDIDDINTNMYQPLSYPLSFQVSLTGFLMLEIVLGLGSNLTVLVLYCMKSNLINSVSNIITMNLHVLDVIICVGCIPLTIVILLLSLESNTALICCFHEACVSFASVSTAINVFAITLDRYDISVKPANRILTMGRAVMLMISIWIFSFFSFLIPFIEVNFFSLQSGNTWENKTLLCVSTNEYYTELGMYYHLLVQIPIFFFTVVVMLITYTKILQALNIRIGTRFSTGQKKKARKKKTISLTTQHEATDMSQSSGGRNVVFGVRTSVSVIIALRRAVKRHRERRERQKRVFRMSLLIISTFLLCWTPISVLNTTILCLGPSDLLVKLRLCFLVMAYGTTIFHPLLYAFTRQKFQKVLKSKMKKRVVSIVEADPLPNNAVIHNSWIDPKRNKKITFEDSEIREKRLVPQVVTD
# T3 sequence (Q99680 whole entry C425R): as above
compound,measurement,setting,value
Nc1nc2c(ncn2[C@@H]2O[C@H](CO)[C@@H](O)[C@H]2O)c(=O)[nH]1 [guanosine],time of intracellular calcium increase after adding guanosine,GPCR22 [1]; GPCR22-transfected S2 cells,≤ 2 min
same,intracellular Ca^2+ level,"GPCR22 [1]; GPCR22-transfected S2 cells, FIGS. 12b, 12c, 15",elevate intracellular Ca^2+ levels; also recorded: significantly increases intracellular calcium level
same,guanosine dose giving peak intracellular calcium increase,"GPCR22 [1]; GPCR22-transfected S2 cells, low dose 0.1 μM to 10 μM, FIG. 13g",5 µM
same,intracellular Ca^2+,"GPCR22 [1]; guanosine 25 μM, time point 1 min, FIG. 13e",significant increase
same,intracellular Ca^2+ fluorescence,"GPCR22 [1]; guanosine 100 μM, imaging at 0, 0.5, 1 and 2 min, FIGS. 13a-d",fast and transient fluorescence increase
same,intracellular Ca^2+ response across high doses,"GPCR22 [1]; high dose guanosine 25 μM-400 μM, time point 1 min, FIG. 13f",no significant difference
same,protection from actinomycine-induced apoptotic cell death (Caspase-3),non-transfected S2 cells [2],had no effect
same,phosphorylation of Erk 1/2,GPCR22 [3]; FIG. 7c,resulted in phosphorylation of both Erk 1/2 and Akt
same,phosphorylation of Akt,GPCR22 [3]; FIG. 7d,resulted in phosphorylation of both Erk 1/2 and Akt
same,intracellular cAMP levels,GPCR22 (G1) receptor,increase intracellular cAMP levels
same,intracellular Ca^2+ level,non-transfected S2 cells [4],does not induce; also recorded: had no effect
same,guanosine binding,GPCR22 [5],abolish
same,activation of intracellular signaling by guanosine,"GPCR22 [6]; astrocytes with GPCR22 inhibited by siRNA, data not shown",abolish
same,phosphorylation of Erk 1/2,"GPCR22 [6]; guanosine 300 μM, astrocytes treated with si-RNA for GPCR22, FIG. 7a",inhibited
same,phosphorylation of Akt,"GPCR22 [6]; guanosine 300 μM, astrocytes treated with si-RNA for GPCR22, FIG. 7b",inhibited
same,Bmax,GPCR22 [7],1.05±0.12 pmol mg^−1 protein and 1.057 pmol mg^−1 protein
same,Kd,GPCR22 [7]; single high affinity binding site,171 ± 39.8 nM
same,protection from actinomycine-induced apoptotic cell death (Caspase-3),[8],protected transfected S2 cells from apoptotic cell death

# Source: US10012641B2, “G-protein-coupled-receptor-22-transformed cell lines and methods of use thereof to identify binding compounds” (LIBRAMEN NATURALS INC., priority 2014, dated 2018)
